In ChEMBL document CHEMBL1156010, “Novel CGRP receptor antagonists through a design strategy of target simplification with addition of molecular flexibility” (Bioorg Med Chem Lett, 2009):
pIC50, pKi: −log10 of the molar value.

target: T1, Calcitonin gene-related peptide type 1 receptor (Homo sapiens, UniProt O60894+Q16602); experiment: Displacement of [125I]hCGRP from human cloned CGRP receptor expressed in HEK293 cells; assay type: cell-based
T1 sequence (Q16602 whole entry, one chain of several): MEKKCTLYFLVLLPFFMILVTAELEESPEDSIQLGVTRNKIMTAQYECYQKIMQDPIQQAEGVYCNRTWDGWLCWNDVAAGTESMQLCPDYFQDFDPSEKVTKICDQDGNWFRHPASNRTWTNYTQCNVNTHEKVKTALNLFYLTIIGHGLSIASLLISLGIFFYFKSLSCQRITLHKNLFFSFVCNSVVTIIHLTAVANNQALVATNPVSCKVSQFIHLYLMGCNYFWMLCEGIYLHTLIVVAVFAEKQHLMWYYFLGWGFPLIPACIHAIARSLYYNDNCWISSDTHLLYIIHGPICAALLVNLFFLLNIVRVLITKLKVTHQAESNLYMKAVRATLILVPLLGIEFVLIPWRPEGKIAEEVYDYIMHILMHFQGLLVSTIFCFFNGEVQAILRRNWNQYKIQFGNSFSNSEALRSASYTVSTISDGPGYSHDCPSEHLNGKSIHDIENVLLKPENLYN

| Structure (SMILES) | pKi |
| --- | --- |
| C[C@@H](c1ccccc1)N(CC(=O)Nc1ccc2c(c1)C[C@@]1(C2)C(=O)NC(=O)N1C)C(=O)C(C)(C)C | 7.25 |
| CN1C(=O)NC(=O)[C@@]12Cc1ccc(NC(=O)CN(Cc3cc(F)cc(F)c3)C(=O)C(C)(C)C)cc1C2 | 9.26 |
| C[C@H](c1cc(F)cc(F)c1)N(CC(=O)Nc1ccc2c(c1)C[C@@]1(C2)C(=O)NC(=O)N1C)C(=O)C(C)(C)C | 9.59 |
| NCC12CC(=O)Nc3cccc(c31)N(Cc1ccc3cc4c(cc3n1)C[C@]1(C4)C(=O)Nc3ncccc31)C2=O (stereo partly drawn) | 9.89 |
| CC1(C)CC[C@@H](c2c(F)cccc2F)N(CC(=O)Nc2ccc3c(c2)C[C@]2(C3)C(=O)Nc3ncccc32)C1=O | 10.46 |
| CN1C(=O)NC(=O)C12Cc1ccc(NC(=O)CN(Cc3cccc(Cl)c3)C(=O)C(C)(C)C)cc1C2 (racemic) | 8.74 |
| CN1C(=O)NC(=O)C12Cc1ccc(NC(=O)CN(Cc3ccc(F)cc3)C(=O)C(C)(C)C)cc1C2 (racemic) | 8.43 |
| CN1C(=O)NC(=O)C12Cc1ccc(NC(=O)CN(Cc3ccccc3F)C(=O)C(C)(C)C)cc1C2 (racemic) | 7.85 |
| CN1C(=O)NC(=O)C12Cc1ccc(NC(=O)CN(Cc3cccc(F)c3)C(=O)C(C)(C)C)cc1C2 (racemic) | 8.80 |
| CN1C(=O)NC(=O)C12Cc1ccc(NC(=O)CN(Cc3cccc(C#N)c3)C(=O)C(C)(C)C)cc1C2 (racemic) | 7.64 |
| CN1C(=O)NC(=O)C12Cc1ccc(NC(=O)CN(Cc3ccc(C(F)(F)F)cc3)C(=O)C(C)(C)C)cc1C2 (racemic) | 7.60 |

Further compounds by rising pKi, results first:

| pKi | Structure (SMILES) |
| --- | --- |
| 7.35 | COc1cccc(CN(CC(=O)Nc2ccc3c(c2)CC2(C3)C(=O)NC(=O)N2C)C(=O)C(C)(C)C)c1 (racemic) |
| 8.10 | Cc1cccc(CN(CC(=O)Nc2ccc3c(c2)CC2(C3)C(=O)NC(=O)N2C)C(=O)C(C)(C)C)c1 (racemic) |
| 8.36 | CN1C(=O)NC(=O)[C@@]12Cc1ccc(NC(=O)CN(Cc3cc(Cl)cc(Cl)c3)C(=O)C(C)(C)C)cc1C2 |
| 8.92 | CN1C(=O)NC(=O)[C@@]12Cc1ccc(NC(=O)CN(Cc3cc(F)cc(Cl)c3)C(=O)C(C)(C)C)cc1C2 |
| 9.08 | C[C@H](c1ccccc1)N(CC(=O)Nc1ccc2c(c1)C[C@@]1(C2)C(=O)NC(=O)N1C)C(=O)C(C)(C)C |

target: T1, Calcitonin gene-related peptide type 1 receptor; experiment: Antagonist activity at human cloned CGRP receptor expressed in HEK293 cells assessed as inhibition of CGRP-induced cAMP production; assay type: functional, cell-based

| pIC50 | Structure (SMILES) |
| --- | --- |
| 9.21 | NCC12CC(=O)Nc3cccc(c31)N(Cc1ccc3cc4c(cc3n1)C[C@]1(C4)C(=O)Nc3ncccc31)C2=O (stereo partly drawn) |
| 9.92 | CC1(C)CC[C@@H](c2c(F)cccc2F)N(CC(=O)Nc2ccc3c(c2)C[C@]2(C3)C(=O)Nc3ncccc32)C1=O |
